These results are taken from patent US20260207563A1, “UREA COMPOUNDS AS ACTIVATORS OF POTASSIUM CHANNELS KV7.2/7.3 USEFUL IN THE TREATMENT OF CNS AND PNS DISORDERS” (ANGELINI PHARMA S.P.A., priority 2022, published 2026).

Holding throughout (type): cell-based
For assay [1], the target named is T1, homomeric KV7.4 channel (KCNQ4) (Homo sapiens, UniProt P56696).
T1 construct: host or cells: CHO-K1
Kind of assay: Automated patch-clamp (Qube) counter-screening assay against KV7.4 channel. The settings on record: CHO-K1 cells expressing KV7.4; class by maximal shift in the Vhalf at 30 μM. Summed up:
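CHO-K1 cells stably expressing homomeric human KV7.4 were recorded on the Qube automated patch clamp. Ten concentrations (1:3 dilutions from 30 μM) were tested in quadruplicate. The mean Vhalf shift was fitted with a 4-parameter logistic to give EC50 and maximal Vhalf shift, and selectivity was based on the shift at 30 μM.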
(In general: Patch clamp records ionic current or voltage across a cell membrane.)

Assay [2] has as its target T2, heteromeric KV7.2/KV7.3 channels (KCNQ2, KCNQ3) (Homo sapiens, UniProt O43525+O43526).
T2 construct: expressed in transfected cells; host or cells: CHO-K1
Kind of assay: Automated patch-clamp (Sophion Qube 384) potency assay against KV7.2/KV7.3 channels. The conditions noted are these: CHO-K1/Kv7.2/Kv7.3 cells; for EC50: EC50 from concentration-response of shift in Vhalf, 10 concentrations up to 30 μM, read-out: Kv7.2/7.3 EC50; for Kv7.2/7.3 ΔV1/2: maximal shift in the Vhalf from the top of the curve. Summed up: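 Whole-cell automated patch clamp on CHO-K1 cells stably expressing human KV7.2/KV7.3, held at −80 mV; I-V steps −100 to +20 mV (1 s) with 0 mV tail pulses, Boltzmann-fitted activation curves. Ten concentrations (1:3 from 30 μM, quadruplicate) versus 0.3% DMSO control; EC50 and maximal shift from 4-parameter fits of Vhalf shift.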

Assay [3] concerns the target T3, heteromeric KV7.3/KV7.5 channel (KCNQ3, KCNQ5) (Homo sapiens, UniProt O43525+Q9NR82).
T3 construct: host or cells: HEK293
The assay can be described thus: Automated patch-clamp counter-screening against KV7.3/KV7.5 channel. The settings on record: HEK293 cells expressing Kv7.3/KV7.5; class by maximal shift in the Vhalf at 30 μM. Summed up:
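HEK293 cells with constitutive Kv7.3 and tetracycline-inducible Kv7.5 were recorded by automated patch clamp. Ten concentrations (1:3 series from 30 μM, quadruplicate) were tested; Vhalf shifts were fitted with a 4-parameter logistic to give EC50 and maximal Vhalf shift, with selectivity based on the shift at 30 μM.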

With `O=C(NCc1ccnc(OCC(F)(F)F)c1)N[C@@H]1CCOc2ccccc21` [Compound 130], the Kv7.4 selectivity criteria result in assay [1] was “B (Non-selective compounds showed Kv7.4 and/or Kv7.3/7.5 ΔV1/2 higher than 15 mV (letter B in table 3))”. In assay [2], the EC50 stood at 1610 nM and the “Kv7.2/7.3 ΔV1/2” value was found to be 40.52 mV. The Kv7.3/7.5 selectivity criteria result in assay [3] was “B (Non-selective compounds showed Kv7.4 and/or Kv7.3/7.5 ΔV1/2 higher than 15 mV (letter B in table 3))”.

Turning to `O=C(NCCC1(C(F)(F)F)CC1)NCc1ccnc(NCC(F)(F)F)c1` [Compound 16, 1-((2-((2,2,2-Trifluoroethyl)amino)pyridin-4-yl)methyl)-3-(2-(1-(trifluoromethyl)cyclopropyl)ethyl)urea], the Kv7.4 selectivity criteria entry in assay [1] was “A (Selective compounds showed Kv7.4 and/or Kv7.3/7.5 ΔV1/2 equal to or lower than 15 mV (letter A in table 3))”. Also, in assay [2], the EC50 is 6230 nM and the “Kv7.2/7.3 ΔV1/2” value is on record as 20.12 mV. Further, in assay [3], the Kv7.3/7.5 selectivity criteria entry is “A (Selective compounds showed Kv7.4 and/or Kv7.3/7.5 ΔV1/2 equal to or lower than 15 mV (letter A in table 3))”.

As for `COc1cc2c(cc1F)CCC2NC(=O)NCc1ccnc(OCC(F)(F)F)c1` (centres unmarked) [Compound 125], in assay [1], the Kv7.4 selectivity criteria result is given as “A (Selective compounds showed Kv7.4 and/or Kv7.3/7.5 ΔV1/2 equal to or lower than 15 mV (letter A in table 3))”. In addition, in assay [2], the EC50 is 683 nM and the “Kv7.2/7.3 ΔV1/2” value is 18.25 mV. The Kv7.3/7.5 selectivity criteria entry in assay [3] is recorded as “A (Selective compounds showed Kv7.4 and/or Kv7.3/7.5 ΔV1/2 equal to or lower than 15 mV (letter A in table 3))”.

Turning to `COc1ccc2c(c1)[C@H](NC(=O)NCc1ccnc(OCC(F)(F)F)c1)CC2` [Compound 134], in assay [1], the Kv7.4 selectivity criteria result was “A (Selective compounds showed Kv7.4 and/or Kv7.3/7.5 ΔV1/2 equal to or lower than 15 mV (letter A in table 3))”. In addition, in assay [2], the EC50 is 3090 nM and the “Kv7.2/7.3 ΔV1/2” value is 43.25 mV. For the same compound, the Kv7.3/7.5 selectivity criteria entry in assay [3] is recorded as “B (Non-selective compounds showed Kv7.4 and/or Kv7.3/7.5 ΔV1/2 higher than 15 mV (letter B in table 3))”.

Turning to `C[C@H](Oc1cc(CNC(=O)NCCC2(C(F)(F)F)CC2)ncn1)C(F)(F)F` [Compound 96], in assay [1], the Kv7.4 selectivity criteria result is reported as “A (Selective compounds showed Kv7.4 and/or Kv7.3/7.5 ΔV1/2 equal to or lower than 15 mV (letter A in table 3))”. Further, in assay [2], the EC50 is 6610 nM and the “Kv7.2/7.3 ΔV1/2” value is on record as 25.66 mV. For the same compound, the Kv7.3/7.5 selectivity criteria entry in assay [3] is reported as “A (Selective compounds showed Kv7.4 and/or Kv7.3/7.5 ΔV1/2 equal to or lower than 15 mV (letter A in table 3))”.

With `O=C(NCc1ccnc(OCc2ccccc2)c1)NCC(O)C1(C(F)(F)F)CC1` (racemic) [Compound 5, (±)-1-((2-(Benzyloxy)pyridin-4-yl)methyl)-3-(2-hydroxy-2-(1-(trifluoromethyl)cyclopropyl)ethyl)urea], the Kv7.4 selectivity criteria result in assay [1] is reported as “A (Selective compounds showed Kv7.4 and/or Kv7.3/7.5 ΔV1/2 equal to or lower than 15 mV (letter A in table 3))”. Further, in assay [2], the EC50 worked out at 2390 nM and the “Kv7.2/7.3 ΔV1/2” value is on record as 21.49 mV. For the same compound, in assay [3], the Kv7.3/7.5 selectivity criteria entry was “A (Selective compounds showed Kv7.4 and/or Kv7.3/7.5 ΔV1/2 equal to or lower than 15 mV (letter A in table 3))”.

Turning to `O=C(NCCC1(C(F)(F)F)CC1)NCc1ccnc(OCc2ccccn2)c1` [Compound 23, 1-((2-(Pyridin-2-ylmethoxy)pyridin-4-yl)methyl)-3-(2-(1-(trifluoromethyl)cyclopropyl)ethyl)urea], the Kv7.4 selectivity criteria result in assay [1] is recorded as “A (Selective compounds showed Kv7.4 and/or Kv7.3/7.5 ΔV1/2 equal to or lower than 15 mV (letter A in table 3))”. In addition, in assay [2], the EC50 worked out at 4750 nM and the “Kv7.2/7.3 ΔV1/2” value is 18.69 mV. Also, the Kv7.3/7.5 selectivity criteria entry in assay [3] is given as “A (Selective compounds showed Kv7.4 and/or Kv7.3/7.5 ΔV1/2 equal to or lower than 15 mV (letter A in table 3))”.

`C[C@@H](Oc1cc(CNC(=O)NCCC2(C(F)(F)F)CC2)ncn1)C(F)(F)F` [Compound 91]: the Kv7.4 selectivity criteria entry in assay [1] is “A (Selective compounds showed Kv7.4 and/or Kv7.3/7.5 ΔV1/2 equal to or lower than 15 mV (letter A in table 3))”. Also, in assay [2], the EC50 is 2290 nM and the “Kv7.2/7.3 ΔV1/2” value worked out at 37.24 mV. Besides, the Kv7.3/7.5 selectivity criteria entry in assay [3] is reported as “B (Non-selective compounds showed Kv7.4 and/or Kv7.3/7.5 ΔV1/2 higher than 15 mV (letter B in table 3))”.

On to `O=C(NCc1ccnc(OCC(F)(F)F)c1)N[C@H]1CCCc2ccccc21` [Compound 138], for which, in assay [1], the Kv7.4 selectivity criteria result is on record as “A (Selective compounds showed Kv7.4 and/or Kv7.3/7.5 ΔV1/2 equal to or lower than 15 mV (letter A in table 3))”. Further, in assay [2], the EC50 worked out at 195 nM and the “Kv7.2/7.3 ΔV1/2” value is listed as 17.98 mV. For the same compound, in assay [3], the Kv7.3/7.5 selectivity criteria result is recorded as “A (Selective compounds showed Kv7.4 and/or Kv7.3/7.5 ΔV1/2 equal to or lower than 15 mV (letter A in table 3))”.

Take `O=C(NCCC1(C(F)(F)F)CC1)N1CCCC1c1ccnc(OCC(F)(F)F)c1` (centres unmarked) [Compound 95]: the Kv7.4 selectivity criteria entry in assay [1] is “A (Selective compounds showed Kv7.4 and/or Kv7.3/7.5 ΔV1/2 equal to or lower than 15 mV (letter A in table 3))”. In assay [2], the EC50 was determined as 2290 nM and the “Kv7.2/7.3 ΔV1/2” value came out at 21.55 mV. In addition, the Kv7.3/7.5 selectivity criteria result in assay [3] is recorded as “A (Selective compounds showed Kv7.4 and/or Kv7.3/7.5 ΔV1/2 equal to or lower than 15 mV (letter A in table 3))”.

For `O=C(NCCC1(C(F)(F)F)CC1)NCc1ccnc(OCC2CC(F)(F)C2)c1` [Compound 15, 1-((2-((3,3-Difluorocyclobutyl)methoxy)pyridin-4-yl)methyl)-3-(2-(1-(trifluoromethyl)cyclopropyl)ethyl)urea], the Kv7.4 selectivity criteria result in assay [1] was “A (Selective compounds showed Kv7.4 and/or Kv7.3/7.5 ΔV1/2 equal to or lower than 15 mV (letter A in table 3))”. Besides, in assay [2], the EC50 is 2020 nM and the “Kv7.2/7.3 ΔV1/2” value is listed as 25.72 mV. In addition, the Kv7.3/7.5 selectivity criteria result in assay [3] is on record as “A (Selective compounds showed Kv7.4 and/or Kv7.3/7.5 ΔV1/2 equal to or lower than 15 mV (letter A in table 3))”.

Take `O=C(NCc1ccnc(OCC(F)(F)F)n1)NCC1CCCCC1` [Compound 107]: the Kv7.4 selectivity criteria entry in assay [1] was “A (Selective compounds showed Kv7.4 and/or Kv7.3/7.5 ΔV1/2 equal to or lower than 15 mV (letter A in table 3))”. Moreover, in assay [2], the EC50 was found to be 3060 nM and the “Kv7.2/7.3 ΔV1/2” value turned out to be 20.76 mV. Also, in assay [3], the Kv7.3/7.5 selectivity criteria entry was “A (Selective compounds showed Kv7.4 and/or Kv7.3/7.5 ΔV1/2 equal to or lower than 15 mV (letter A in table 3))”.

Regarding `O=C(NCCC1(C(F)(F)F)CC1)N1CCC[C@H]1c1ccnc(OCC(F)(F)F)c1` [Compound 106], in assay [1], the Kv7.4 selectivity criteria result is “A (Selective compounds showed Kv7.4 and/or Kv7.3/7.5 ΔV1/2 equal to or lower than 15 mV (letter A in table 3))”. Further, in assay [2], the EC50 was found to be 2840 nM and the “Kv7.2/7.3 ΔV1/2” value turned out to be 28.47 mV. In assay [3], the Kv7.3/7.5 selectivity criteria entry was “A (Selective compounds showed Kv7.4 and/or Kv7.3/7.5 ΔV1/2 equal to or lower than 15 mV (letter A in table 3))”.

In the case of `O=C(NCc1ccnc(OCC(F)(F)F)c1)NCc1cc(F)ccc1Cl` [Compound 85, 1-(2-Chloro-5-fluorobenzyl)-3-((2-(2,2,2-trifluoroethoxy)pyridin-4-yl)methyl)urea], the Kv7.4 selectivity criteria result in assay [1] is listed as “A (Selective compounds showed Kv7.4 and/or Kv7.3/7.5 ΔV1/2 equal to or lower than 15 mV (letter A in table 3))”. Also, in assay [2], the EC50 was determined as 206 nM and the “Kv7.2/7.3 ΔV1/2” value came to 20.49 mV. Moreover, the Kv7.3/7.5 selectivity criteria result in assay [3] is on record as “A (Selective compounds showed Kv7.4 and/or Kv7.3/7.5 ΔV1/2 equal to or lower than 15 mV (letter A in table 3))”.
